Data set [1] is described as follows: Proportion of particles of 75 μm or more (Air Jet Sieve). Type of data set: physicochemical. The conditions noted are these: excipient powder. On the procedure: Five grams of trehalose was weighed onto a screen having a screen opening of 75 μm, and sifted with Air Jet Sieve (Model 200LS, mfd. by ALPINE) for 5 minutes, and the weight percentage of the weight of particles remaining on the screen based on the total weight of particles was calculated as the proportion of particles of 75 μm or more.

Data set [2] is described as follows: Average particle size (sieving, 50% cumulative weight). The conditions noted are these: excipient powder. It is filed as physicochemical. On the procedure: Five grams of trehalose was sifted through screens having screen openings of 500 μm, 300 μm and 250 μm, respectively, and then sifted with Air Jet Sieve by using screens having screen openings of 150 μm, 75 μm, 45 μm, 38 μm and 32 μm, respectively. The oversize particle weight percentage [%] was calculated for each screen, and the average particle size is expressed as a particle size corresponding to a cumulative weight percentage of 50%.

A further data set in a line: Apparent specific volume. Type of data set: physicochemical. The conditions noted are these: excipient powder. The source says:
The whole of 10 g of trehalose powder was gently poured into a 100-ml measuring cylinder without making an impact (in this case, a cylinder having an outside diameter smaller than the inside diameter of the measuring cylinder was placed in the measuring cylinder, and it was slowly lifted after pouring the trehalose), and the apparent specific volume was expressed as a value obtained by dividing the read volume by the weight of the trehalose.

A short description of data set [3]: Angle of repose (Sugiwara's instrument). The note with it: excipient powder. Type of data set: physicochemical. The source says:
Measured by means of a Sugiwara's instrument for measuring angle of repose (Yakuzaigaku 27, p. 260, 1965).

Data set [4] is described as follows: Whiteness of powder (color analyzer). It is filed as physicochemical. The conditions noted are these: excipient powder. On the procedure:
(§1) For powder of trehalose or a pharmaceutical composition containing trehalose, values of L, a and b were measured with a color analyzer (TC-1800MKII, mfd. by Tokyo Denshoku Co., Ltd.), and the whiteness of the trehalose or pharmaceutical composition was calculated by the following equation: […]

Data set [5] is described as follows: Tablet hardness (Schleuniger hardness meter). It is filed as physicochemical. The conditions noted are these: for Tablet hardness at a compression pressure of 1000 kg/cm^2: phenacetin granules; for Tablet hardness: listed as C.
The nature of data set [6]: Wet granulation of phenacetin mixture with HPC binder solution: granule size and yield.
Data set [7] can be described thus: Dissolution test (13th revised Japanese Pharmacopoeia) of phenacetin granules. It is filed as physicochemical. On the procedure:
The wet granules obtained in Example 6 were subjected to a dissolution test according to the dissolution test prescribed in the 13th revised Japanese Pharmacopoeia. The first liquid listed in the Japanese Pharmacopoeia was used as a test liquid, and the drug dissolution rate after 5 minutes was measured. The dissolution rate was calculated by taking the total amount of the drug contained in the granules as 100%. […] In the case of the trehaloses J and K, the dissolution rate after 5 minutes was as very high as 80%.
The granules prepared from each of lactose and Mannit P in Comparative Example 4 were subjected to a dissolution test according to the dissolution test prescribed in the 13th revised Japanese Pharmacopoeia. The first liquid listed in the Japanese Pharmacopoeia was used as a test liquid, and the drug dissolution rate after 5 minutes was measured. The drug dissolution rate was calculated by taking the total amount of the drug contained in the granules as 100%. […] In the case of lactose and Mannit P, the dissolution rate after 5 minutes was lower than in the case of trehaloses J and K.

Data set [8] is described as follows: Water content (Karl Fisher) of tablets before and after storage. It is filed as physicochemical. The conditions noted are these: tablets compressed at 500 kg/cm^2; 0 day; listed as C. On the procedure:
Determined as a value obtained by measuring about 0.1 g of trehalose and determining its water content by the Karl Fisher method.
One hundred grams of commercial “Trehaose” (available from Hayashibara Biochemical Laboratories, Inc.) was dissolved in water to a concentration of about 35 wt %, and the resulting solution was concentrated under reduced pressure with heating at 60° C. so as to have a concentration of about 75 wt %, and allowed to stand at room temperature to precipitate crystals, which were washed with 50 ml of water. Glucose was removed by carrying out the above purification procedure once or twice, to increase the trehalose purity. Trehalose A was obtained by carrying out the purification procedure twice to obtain crystals, drying the crystals, grinding the dried crystals with a bantam mill (number of revolutions 15,000 rpm, feed rate 5 kg/hr, and screen opening 2.0 mmφ), and then sifting the ground crystals through a […]. Trehalose B was obtained by carrying out the purification procedure once to obtain crystals, drying the crystals, grinding the dried crystals with a bantam mill (number of revolutions 10,000 rpm, feed rate 5 kg/hr, and screen opening 2.00 mmφ), and then sifting the ground crystals through a 350-μm screen. Trehalose C was obtained by carrying out the purification procedure once to obtain crystals, drying the crystals, grinding the dried crystals with a bantam mill (number of revolutions 8,000 rpm, feed rate 5 kg/hr, and screen opening 2.0 mmφ), and then sifting the ground crystals through a 350-μm screen. […] Each of trehaloses A to C was compressed into tablets at a compression pressure of 500 kg/cm^2, and the tablet hardness immediately after the compression and the tablet hardness after standing for 3 days in an atmosphere of 40° C. and 75% RH after the compression were compared.
“Trehaose” (available from Hayashibara Bioscience Laboratories Co., Ltd.) was purified once by the method described in Example 1 to obtain crystals, which were dried, ground with a bantam mill (number of revolutions 12,000 rpm, feed rate 5 kg/hr, and screen opening 2.0 mmφ) and then dried at 105° C. for 4 hours to obtain trehalose anhydrous crystals. These crystals were compressed into tablets at a compression pressure of 500 kg/cm^2, and the tablet hardnesses of the tablets were compared in the same manner as in Example 1.

The nature of data set [9]: Change in whiteness of excipient mixed with drug at 40° C. and 75% RH (reactivity). It is filed as physicochemical. The note with it: listed as C. As for the experimental part:
as §1
One gram of each of the trehaloses obtained in Example 1 and 1 g of isoniazid were mixed and then allowed to stand in an atmosphere of 40° C. and 75% RH, and the change in whiteness of the trehalose was observed. On the other hand, 1 g of each of the trehaloses obtained in Example 1 and 1 g of aminophyline were mixed and then allowed to stand in an atmosphere of 40° C. and 75% RH, and the change in whiteness of the trehalose was observed.
One gram of 100-mesh lactose (available from De Melkindustrie Veghel bv) or 1 g of Mannit S (available from Tohwa Kasei Co., Ltd.) and 1 g of aminophyline were mixed and then allowed to stand in an atmosphere of 40° C. and 75% RH, and the change in whiteness of the lactose or Mannit S was observed.
As a starting material. […]

Data set [10] can be described thus: Disintegration time according to Japanese Pharmacopoeia. Type of data set: physicochemical. The note with it: listed as C. As for the experimental part: The disintegration time of each of six molded products was measured by the use of ion-exchanged water according to the disintegration time measuring method prescribed in the 13th revised Japanese Pharmacopoeia, and the average of measured values was calculated.

The mark [11] stands for this setting: phenacetin granules, binding solution 180 g.
Where [12] appears, read: phenacetin granules, binding solution 240 g.
Setting [13] is: phenacetin 50/excipient 30/corn starch 10/microcrystalline cellulose 10, binding solution 100 g.
The mark [14] stands for this setting: phenacetin granules, binding solution 120 g.
Setting [15] is: phenacetin granules, binding solution 160 g.
Setting [16] is: Example 10: as Example 9 but molded at 60 kg/cm^2.

For `OC[C@H]1O[C@@H](O[C@H]2[C@H](O)[C@@H](O)C(O)O[C@@H]2CO)[C@H](O)[C@@H](O)[C@H]1O` (some centres unmarked) [200M lactose, lactose, reference compound], the “Proportion of particles of 75 μm or more” value in [1] turned out to be 15%. In addition, the Average particle size in [2] was found to be 60 μm. In “Apparent specific volume”, the Apparent specific volume was determined as 2.1 cm^3/g. Moreover, the Angle of repose in [3] is 45 °. Also, the Whiteness in data set [4] was 95%. Besides, the “Tablet hardness at a compression pressure of 1000 kg/cm^2” value (from here on “Tablet hardness … of 1000 kg/cm^2”) stood at 2.5 kgf in data set [5] (binding solution 180 g), 3.0 kgf in data set [5] (binding solution 220 g) and 3.7 kgf in [5] (binding solution 240 g). The “Average particle size of granules” value was found to be 91 μm in [6] (setting [11]); 150 μm in data set [6] (phenacetin granules, binding solution 220 g); 220 μm in data set [6] (setting [12]). Also, the “Drug dissolution rate after 5 min.” value in [7] (binding solution 240, first liquid of Japanese Pharmacopoeia) is given as 60%.
Regarding `OC[C@H]1O[C@H](O[C@H]2O[C@H](CO)[C@@H](O)[C@H](O)[C@H]2O)[C@H](O)[C@@H](O)[C@@H]1O` [Trehalose K, trehalose], in [1], the “Proportion of particles of 75 μm or more” value was 21%. The Average particle size in data set [2] is reported as 50 μm. Further, in “Apparent specific volume”, the Apparent specific volume came to 2.1 cm^3/g. For the same compound, in [3], the Angle of repose came to 42 °. This compound showed a Whiteness in data set [4] of 97%. Besides, the “Tablet hardness … of 1000 kg/cm^2” value is 5.0 kgf in [5] (binding solution 100 g); 4.5 kgf in data set [5] (binding solution 120 g); 2.9 kgf in data set [5] (binding solution 160 g, listed as K). The “Average particle size of granules” value in [6] (setting [13]) turned out to be 120 μm; in data set [6] (setting [14]) it was 140 μm; in [6] (setting [15]) it was 180 μm; in data set [6] (phenacetin granules, binding solution 160 g, listed as K) it was 180 μm. Besides, the “Drug dissolution rate after 5 min.” value in data set [7] (binding solution 160, first liquid of Japanese Pharmacopoeia) was determined as 80%.
Consider `OC[C@H]1O[C@H](O[C@H]2O[C@H](CO)[C@@H](O)[C@H](O)[C@H]2O)[C@H](O)[C@@H](O)[C@@H]1O` [Trehalose J, trehalose], for which, in data set [1], the “Proportion of particles of 75 μm or more” value is recorded as 40%. Besides, in [2], the Average particle size came out at 60 μm. Besides, the Apparent specific volume in the data set “Apparent specific volume” worked out at 2.0 cm^3/g. For the same compound, in data set [3], the Angle of repose was 41 °. This compound also gave a Whiteness in data set [4] of 96%. In addition, the “Tablet hardness … of 1000 kg/cm^2” value in data set [5] (binding solution 100 g) stood at 5.1 kgf; in [5] (binding solution 120 g, listed as J), 4.7 kgf; in [5] (binding solution 160 g) it was 3.0 kgf. Besides, the “Average particle size of granules” value in data set [6] (setting [13]) amounted to 110 μm; in data set [6] (setting [14]), 130 μm; in data set [6] (phenacetin granules, binding solution 120 g, listed as J) it was 130 μm; in data set [6] (setting [15]), 270 μm. The “Drug dissolution rate after 5 min.” value in data set [7] (binding solution 120, first liquid of Japanese Pharmacopoeia) is 80%.
As for `OC[C@H]1O[C@H](O[C@H]2O[C@H](CO)[C@@H](O)[C@H](O)[C@H]2O)[C@H](O)[C@@H](O)[C@@H]1O` [Trehalose C, trehalose], in data set [1] (listed as C), the “Proportion of particles of 75 μm or more” value came out at 73%. The compound further registered an Average particle size in data set [2] (listed as C) of 127 μm. The Apparent specific volume in “Apparent specific volume” (listed as C) was determined as 1.9 cm^3/g. This compound also had an Angle of repose in data set [3] (listed as C) of 40 °. For the same compound, the Whiteness in [4] (listed as C) stood at 95%; in data set [9] (1 g excipient + 1 g aminophyline, 0 day) it was 98%; in [9] (1 g excipient + 1 g aminophyline, 40° C. and 75% RH, 1 month) it was 93%; in data set [9] (1 g excipient + 1 g isoniazid, 0 day), 97%; in data set [9] (1 g excipient + 1 g isoniazid, 40° C. and 75% RH, 1 month) it was 93%. This compound had a Water content in [8] of 9.8%. Also, the Tablet hardness in [5] (Example 8: molded product of trehalose only, molded at 30 kg/cm^2, dried overnight at 40° C.) is 6.0 kg; in data set [5] (setting [16]), 8.6 kg; in data set [5] (process of Example 9: 950 g excipient + 50 g phenylpropanolamine hydrochloride, molded at 30 kg/cm^2), 5.6 kg; in data set [5] (tablets compressed at 500 kg/cm^2, 0 day (immediately after compression)), 2.3 kgf; in data set [5] (tablets compressed at 500 kg/cm^2, 3 days at 40° C. and 75% RH), 2.3 kgf. Also, the “Disintegration time according to Japanese Pharmacopoeia” value in [10] (Example 8: molded product of trehalose only, 30 kg/cm^2) came out at 10 s; in data set [10] (setting [16]), 33 s; in data set [10] (process of Example 9: 950 g excipient + 50 g phenylpropanolamine hydrochloride, 30 kg/cm^2), 10 s.
In the case of `OC[C@@H](O)[C@@H](O)[C@H](O)[C@H](O)CO` [Mannit P, reference compound], the “Proportion of particles of 75 μm or more” value in data set [1] is 20%. In addition, in data set [2], the Average particle size is 47 μm. In “Apparent specific volume”, the Apparent specific volume is 2.1 cm^3/g. The Angle of repose in data set [3] came out at 45 °. The compound further showed a Whiteness in [4] of 96%. Besides, the “Tablet hardness … of 1000 kg/cm^2” value stood at 3.9 kgf in data set [5] (binding solution 180 g), 3.0 kgf in data set [5] (binding solution 200 g) and 3.1 kgf in [5] (binding solution 240 g). The “Average particle size of granules” value in data set [6] (setting [11]) was found to be 106 μm; in [6] (phenacetin granules, binding solution 200 g), 144 μm; in data set [6] (setting [12]), 313 μm. In addition, the “Drug dissolution rate after 5 min.” value in data set [7] (binding solution 200, first liquid of Japanese Pharmacopoeia) was 70%.

These data come from US20020042393A1, “Excipient” (priority 1998, published 2002).
